Data from US6936585B2, “Corticotropin releasing factor 2 receptor agonists” (priority 2002, dated 2005).
Ends that are not written are not given here. Peptide text beside a SMILES is read from it.

Experiments:
CRF1R = target: T1, CRF1R (Homo sapiens, UniProt P34998); assay: CRF1R agonist activation (EC50 / Emax), called comparative CRF binding; type: cell-based; conditions: for EC50: read-out: CRF1R EC50; for Emax: read-out: CRF1R Emax
T1 sequence (P34998 24-415): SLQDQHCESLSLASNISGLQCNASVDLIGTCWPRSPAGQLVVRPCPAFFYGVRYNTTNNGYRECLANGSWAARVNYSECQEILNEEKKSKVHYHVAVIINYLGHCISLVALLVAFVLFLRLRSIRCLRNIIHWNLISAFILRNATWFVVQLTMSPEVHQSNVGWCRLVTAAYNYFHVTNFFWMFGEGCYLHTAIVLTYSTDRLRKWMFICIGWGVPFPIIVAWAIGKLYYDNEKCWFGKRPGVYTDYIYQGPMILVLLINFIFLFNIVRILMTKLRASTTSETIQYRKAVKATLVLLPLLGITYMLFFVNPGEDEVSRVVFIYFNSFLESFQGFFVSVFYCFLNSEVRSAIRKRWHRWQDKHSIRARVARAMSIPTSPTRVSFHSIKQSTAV
How it was run: (§1)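 Cells expressing full-length human CRF1R or CRF2R were exposed to peptide or vehicle control, and receptor activation was gauged as cAMP induction. cAMP was measured in cell lysates or via a cAMP-responsive element driving a reporter gene such as luciferase, CAT, GFP or alkaline phosphatase.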

CRF2R = target: T2, CRF2R (Homo sapiens, UniProt Q13324); assay: CRF2R agonist activation (EC50 / Emax), called comparative CRF binding; type: cell-based; conditions: for EC50: read-out: CRF2R EC50; for Emax: read-out: CRF2R Emax
T2 sequence (Q13324 1-411): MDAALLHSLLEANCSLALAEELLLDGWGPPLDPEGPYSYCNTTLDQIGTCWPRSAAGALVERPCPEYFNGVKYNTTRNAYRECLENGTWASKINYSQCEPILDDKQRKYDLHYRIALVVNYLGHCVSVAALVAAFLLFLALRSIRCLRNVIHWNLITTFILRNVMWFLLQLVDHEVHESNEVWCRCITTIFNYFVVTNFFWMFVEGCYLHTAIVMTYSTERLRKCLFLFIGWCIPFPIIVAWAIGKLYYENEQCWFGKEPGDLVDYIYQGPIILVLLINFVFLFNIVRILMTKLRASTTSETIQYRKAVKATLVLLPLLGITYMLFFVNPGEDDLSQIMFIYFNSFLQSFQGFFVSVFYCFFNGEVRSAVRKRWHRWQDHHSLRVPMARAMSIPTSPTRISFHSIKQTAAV
How it was run: as §1

Molecule	EC50 (CRF1R) [nM]	Emax (CRF1R) [%]	EC50 (CRF2R) [nM]	Emax (CRF2R) [%]
CC[C@H](C)[C@H](N)C(=O)N[C@H](C(=O)N[C@@H](CC(C)C)C(=O)N[C@@H](CO)C(=O)N[C@@H](CC(C)C)C(=O)N[C@@H](CC(=O)O)C(=O)N[C@H](C(=O)N1CCC[C@H]1C(=O)N[C@H](C(=O)NCC(=O)N[C@@H](CC(C)C)C(=O)N[C@@H](CC(C)C)C(=O)N[C@@H](CCC(N)=O)C(=O)N[C@H](C(=O)N[C@@H](CC(C)C)C(=O)N[C@@H](CC(C)C)C(=O)N[C@@H](CCC(=O)O)C(=O)N[C@@H](CCC(N)=O)C(=O)N[C@@H](CCC(=O)O)C(=O)N[C@@H](CCCCN)C(=O)N[C@@H](CCC(=O)O)C(=O)N[C@@H](CCCCN)C(=O)N[C@@H](CCCCN)C(=O)N[C@@H](CCCNC(=N)N)C(=O)N[C@@H](CCCCN)C(=O)N[C@@H](CCC(=O)O)C(=O)N[C@H](C(=O)N[C@@H](CC(N)=O)C(=O)N[C@@H](C)C(=O)N[C@@H](CCCNC(=N)N)C(=O)N[C@H](C(=O)N[C@@H](CC(C)C)C(=O)N[C@@H](C)C(=O)N[C@@H](CCCNC(=N)N)C(=O)N[C@H](C(N)=O)C(C)C)[C@@H](C)CC)[C@@H](C)O)[C@@H](C)CC)[C@@H](C)CC)C(C)C)C(C)C [compound 132] (H-IVLSLDVPIGLLQILLEQEKEKKRKETNARILARV-NH2; N-terminus assumed)	> 100	8	7.53	88
SQEPPISLDLPFQLLREVLEMTKADQLAQQAHSNRKLLDIA-NH2 [compound 91]		4		7.1
CC[C@H](C)[C@H](N)C(=O)N[C@H](C(=O)N[C@@H](CC(C)C)C(=O)N[C@@H](CO)C(=O)N[C@@H](CC(C)C)C(=O)N[C@@H](CC(=O)O)C(=O)N[C@H](C(=O)N1CCC[C@H]1C(=O)N[C@H](C(=O)NCC(=O)N[C@@H](CC(C)C)C(=O)N[C@@H](CC(C)C)C(=O)N[C@@H](CCC(N)=O)C(=O)N[C@H](C(=O)N[C@@H](CC(C)C)C(=O)N[C@@H](CC(C)C)C(=O)N[C@@H](CCC(=O)O)C(=O)N[C@@H](CCC(N)=O)C(=O)N[C@H](C(=O)N[C@@H](CCCNC(=N)N)C(=O)N[C@@H](C)C(=O)N[C@@H](CC(=O)O)C(=O)N[C@@H](C)C(=O)N[C@@H](C)C(=O)N[C@@H](CCCNC(=N)N)C(=O)N[C@@H](CCC(=O)O)C(=O)N[C@@H](CCC(N)=O)C(=O)N[C@@H](C)C(=O)N[C@H](C(=O)N[C@H](C(=O)N[C@@H](CC(N)=O)C(=O)N[C@@H](C)C(=O)N[C@@H](CCCNC(=N)N)C(=O)N[C@H](C(=O)N[C@@H](CC(C)C)C(=O)N[C@@H](C)C(=O)N[C@@H](CCCNC(=N)N)C(=O)N[C@H](C(N)=O)C(C)C)[C@@H](C)CC)[C@@H](C)O)[C@@H](C)O)[C@@H](C)O)[C@@H](C)CC)[C@@H](C)CC)C(C)C)C(C)C [compound 126] (H-IVLSLDVPIGLLQILLEQTRADAAREQATTNARILARV-NH2; N-terminus assumed)	> 100	7	13	91
CC[C@H](C)[C@H](N)C(=O)N[C@H](C(=O)N[C@@H](CC(C)C)C(=O)N[C@@H](CO)C(=O)N[C@@H](CC(C)C)C(=O)N[C@@H](CC(=O)O)C(=O)N[C@H](C(=O)N1CCC[C@H]1C(=O)N[C@H](C(=O)NCC(=O)N[C@@H](CC(C)C)C(=O)N[C@@H](CC(C)C)C(=O)N[C@@H](CCC(N)=O)C(=O)N[C@H](C(=O)N[C@@H](CC(C)C)C(=O)N[C@H](C(=O)N[C@@H](CCC(=O)O)C(=O)N[C@H](C(=O)N[C@@H](CCC(=O)O)C(=O)N[C@@H](CCCCN)C(=O)N[C@@H](CCC(N)=O)C(=O)N[C@@H](CCC(=O)O)C(=O)N[C@@H](CCCCN)C(=O)N[C@@H](CCC(=O)O)C(=O)N[C@@H](CCCCN)C(=O)N[C@@H](CCC(N)=O)C(=O)N[C@@H](CCC(N)=O)C(=O)N[C@@H](C)C(=O)N[C@@H](C)C(=O)N[C@H](C(=O)N[C@H](C(=O)N[C@@H](CC(N)=O)C(=O)N[C@@H](C)C(=O)N[C@@H](CCCNC(=N)N)C(=O)N[C@H](C(=O)N[C@@H](CC(C)C)C(=O)N[C@@H](C)C(=O)N[C@@H](CCCNC(=N)N)C(=O)N[C@H](C(N)=O)C(C)C)[C@@H](C)CC)[C@@H](C)O)[C@@H](C)O)[C@@H](C)CC)[C@@H](C)CC)[C@@H](C)CC)[C@@H](C)CC)C(C)C)C(C)C [compound 168] (H-IVLSLDVPIGLLQILIEIEKQEKEKQQAATTNARILARV-NH2; N-terminus assumed)	≥ 1000	52	4.9	75
CC[C@H](C)[C@H](NC(=O)[C@H](CCCNC(=N)N)NC(=O)[C@H](C)NC(=O)[C@H](CC(N)=O)NC(=O)[C@H](CCC(N)=O)NC(=O)[C@H](CCC(=O)O)NC(=O)[C@H](C)NC(=O)[C@H](CCCNC(=N)N)NC(=O)[C@H](CCC(=O)O)NC(=O)[C@H](CCCNC(=N)N)NC(=O)[C@H](CCC(N)=O)NC(=O)[C@H](CO)NC(=O)[C@H](CCC(N)=O)NC(=O)[C@@H](NC(=O)[C@H](CCCCN)NC(=O)[C@H](CCC(=O)O)NC(=O)[C@H](CC(C)C)NC(=O)[C@H](CCC(=O)O)NC(=O)[C@H](CC(C)C)NC(=O)[C@H](CC(C)C)NC(=O)[C@@H](NC(=O)[C@H](CCCNC(=N)N)NC(=O)[C@H](CC(C)C)NC(=O)[C@H](CC(C)C)NC(=O)[C@H](Cc1ccccc1)NC(=O)[C@H](Cc1ccccc1)NC(=O)[C@@H]1CCCN1C(=O)[C@@H](NC(=O)[C@H](CC(=O)O)NC(=O)[C@@H](NC(=O)[C@H](CO)NC(=O)[C@H](CC(C)C)NC(=O)[C@H](CO)NC(=O)[C@@H]1CCCN1C(=O)[C@H](CC(N)=O)NC(=O)[C@@H](N)CC(=O)O)[C@@H](C)CC)C(C)C)[C@@H](C)O)[C@@H](C)O)C(=O)N[C@@H](Cc1ccccc1)C(=O)N[C@@H](C)C(=O)N[C@@H](CCCNC(=N)N)C(=O)N[C@H](C(N)=O)C(C)C [compound 386] (H-DNPSLSIDVPFFLLRTLLELEKTQSQRERAEQNARIFARV-NH2; N-terminus assumed)	≥ 1000	78.2	8.7	96
SEEPPISLDVPIGLLQEVLEMARAEQLAQQAHSNRKLMEII-NH2 [compound 162]		11		7
SQEPPISLDLPLHLLREVLEMTKADQLAQQAHSNRKLLDIA-NH2 [compound 102]		7.8		13.5
CC[C@H](C)[C@H](NC(=O)[C@H](CCCNC(=N)N)NC(=O)[C@H](C)NC(=O)[C@H](CC(N)=O)NC(=O)[C@H](CCC(N)=O)NC(=O)[C@H](CCC(=O)O)NC(=O)[C@H](C)NC(=O)[C@H](CCCNC(=N)N)NC(=O)[C@H](CCC(=O)O)NC(=O)[C@H](CCCNC(=N)N)NC(=O)[C@H](CCC(N)=O)NC(=O)[C@H](CO)NC(=O)[C@H](CCC(N)=O)NC(=O)[C@@H](NC(=O)[C@H](CCCNC(=N)N)NC(=O)[C@H](C)NC(=O)[C@H](CC(C)C)NC(=O)[C@H](CCC(=O)O)NC(=O)[C@H](CC(C)C)NC(=O)[C@H](CC(C)C)NC(=O)[C@@H](NC(=O)[C@H](CCCNC(=N)N)NC(=O)[C@H](CC(C)C)NC(=O)[C@H](CC(C)C)NC(=O)[C@@H](NC(=O)[C@H](CC(C)C)NC(=O)[C@@H]1CCCN1C(=O)[C@H](CC(C)C)NC(=O)[C@H](CC(=O)O)NC(=O)[C@@H](NC(=O)[C@H](CO)NC(=O)[C@H](CC(C)C)NC(=O)[C@H](CO)NC(=O)[C@@H]1CCCN1C(=O)[C@H](CC(N)=O)NC(=O)[C@@H](N)CC(=O)O)[C@@H](C)CC)[C@@H](C)CC)[C@@H](C)O)[C@@H](C)O)C(=O)N[C@@H](Cc1ccccc1)C(=O)N[C@@H](C)C(=O)N[C@@H](CCCNC(=N)N)C(=O)N[C@H](C(N)=O)C(C)C [compound 330] (H-DNPSLSIDLPLILLRTLLELARTQSQRERAEQNARIFARV-NH2; N-terminus assumed)	≥ 1000	86.8	6	93.7
